Read-outs that look alike come from different tables or passages of the source.
Experiments:
[1] = Intravenous glucose tolerance test (IVGTT), i.v. infusion; type: in vivo, rat; conditions: for insulin levels prior to the glucose challenge / insulinotropic response to an intravenous glucose challenge (IVGTT assay): 100 pmol/kg/min infusion, rats
Method: In the typical IVGTT assays the test sample was administered by IV infusion. The IV infusion of sample was initiated at t=−30 min and continued through t=90. IV glucose was given at t=0. To determine a duration of action using the IVGTT assay, the sample was injected SC as a single injection at one time point indicated (e.g., t=−240, −120, −60 or −30) prior to administration of glucose. IV glucose was given at t=0.
As described, fed, isoflurane anesthetized HSD male rats were intubated and cannulated via femoral artery and vein and allowed to stabilize for 1 hour. […] At t=0, an i.v. bolus of 5.7 mmol/kg D-glucose was administered over 2 minutes. Samples for glucose measurement and insulin concentrations were taken at various time points before and after (0 to 90 minutes) glucose infusion.

[2] = Glucose in rats (summary table); type: in vivo, rat
[3] = Gastric emptying (FIG. 23A); conditions: in vivo
[4] = type: in vivo, NIH/Swiss mice
Method: (§1) In FIG. 3A, bars represent mean±sd, n=6-10. […] Gavage (1.5 g/kg) was given at t=0, Sample was taken at t=30 min. […] In FIG. 3B, points represent mean±sem, n=8-15.
Points represent mean±sem.

[5] = Telemetry of circulatory effects in conscious rats; conditions: 80 nmol/kg intravenous
[6] = Body composition in DIO mice; type: in vivo, C57BL/6J mice
From the text: During the study, the mice can continue to eat their high-fat diet. Water can be provided ad libitum throughout the study.
DIO mice can be implanted with subcutaneous (SC) intrascapular osmotic pumps to deliver either vehicle (50% dimethylsulfoxide (DMSO) in water) or a compound of the invention. […] Body weights and food intake can be measured over regular intervals throughout the study periods. Respiratory quotient (RQ, defined as CO2 production÷O2 consumption) and metabolic rate can be determined using whole-animal indirect calorimetry (Oxymax, Columbus Instruments, Columbus, Ohio). The mice can be euthanized by isoflurane overdose, and an index of adiposity (bilateral epididymal fat pad weight) measured. Moreover, prior to determination of epididymal weight, body composition (lean mass, fat mass) for each mouse can be analyzed using a Dual Energy X-ray Absorptiometry (DEXA) instrument per manufacturer's instructions (Lunar Piximus, GE Imaging System).

[7] = conscious rats, cited from earlier work
[8] = Intracellular calcium levels (FIG. 23B)
[9] = type: in vivo, NIH/Swiss mice; remark: listed apart in the source
Method: as §1
Peptide was injected IP at t=−5 minutes into 4-hour fasted NIH/Swiss female mice. […] In FIG. 17 points represent mean+/−sem. […] Samples were taken at t=60, t=120 and t=180.

[10] = target: cardiomyocyte Gs-coupled receptors; test: cAMP production in neonatal cardiomyocytes (HTRF, Gs-coupled receptor activation); type: cell-based, rat; conditions: neonatal rat cardiomyocytes
Method: Activation of cardiomyocyte Gs- and Gi-coupled receptors was determined as a measure of cAMP production.
Neonatal cardiomyocytes were isolated using a commercially available system. […] Sprague Dawley neonatal rats (1-2 days old) were decapitated and the beating heart dissected out into digestion buffer (Cellutron D1 buffer) to dissociate cells. […] The resuspended cells incubated in buffer (Cellutron D3 buffer) for sufficient time to allow optimal dispersion and minimize the need for pipetting to break up clumps. Cells released from the first 2 digestions were discarded since a significant portion of these is red blood cells. Resuspended cells were filtered and allowed to pre-plate for 1 hour on plastic in an incubator in NS media (Cellutron, N.J.) in order to remove fibroblasts. After 1 hour of pre-plating, floating cells are removed and the flask rinsed with NS media. The floating cells and the cells in the rinse media were combined and counted. Residual red blood cells, which are smaller that the cardiac myocytes, were not counted.
At Day 1, the NS media was replaced with fresh NS media.
Dose response was determined.
For Gs assays the positive control was 10 uM forskolin and negative control was buffer. For Gi assays the positive control was buffer and the negative control was 10 uM forskolin.

[11] = type: in vivo, db/db mice; conditions: for glucose lowering in a diabetic mouse model (FIG. 4): db/db mice, IP
Method: Peptide was injected IP at t=0 immediately following baseline sample into 2-hour fasted db/db mice.

[12] = Body weight gain in diet-induced-obesity (DIO) mice; type: in vivo, C57BL/6 mice
[13] = IVGTT duration of action assay (single SC injection before glucose); type: in vivo, rat
Method: To determine a duration of action using the IVGTT assay, the sample was injected SC as a single injection at one time point indicated (e.g., t=−240, −120, −60 or −30) prior to administration of glucose. IV glucose was given at t=0.

[14] = test system: pancreatic CCK receptor; conditions: cited from earlier work
[15] = target: human GIP receptor; test: biochemical; type: binding; conditions: read-out: GIP RBA
[16] = 30, 60 90 μg, men with IDDM; cited from earlier work
[17] = 30 minutes, read-out: EC50 of cAMP production (this experiment, FIGS. 18A/18B)
[18] = read-out: EC50 of cardiomyocyte Gs-coupled receptor activation (three independent experiments)

In the case of “YAEGTFISDYSIAMDKIHQQDFVNWLLAQKGKKNDWKHNITQ-OH [GIP, reference compound]”, the “insulin levels prior to the glucose challenge” value [1] is reported as “significant rise in insulin levels”, the “insulinotropic response to an intravenous glucose challenge (IVGTT assay)” value [1] is reported as “significant enhancement of the insulinotropic response” and the Glucose rats [2] is reported as “not active”. The “Gastric Emptying” value [3] was “not active”, the “food intake” value (mice, peptide injected IP) was “not active” and the food intake (mouse, in vivo, ip) was “did not acutely inhibit food intake”. For the same molecule, the Glucose mice ([4]; mice) was “weak”, the “basal glucose lowering (% maximal decrease)” value ([4]; mouse, in vivo) was 0% and the dP/dt [5] was “increased dP/dt similarly”. For the same molecule, the “effect on mean arterial pressure” value [5] was “had no effect”, the “Body Comp (mDIO)” value ([6]; DIO mice) was “No effect on lean mass” and the “inhibition of gastric emptying at doses of 100 μg” value ([7]; 100 μg) was “either weakly active or inactive”. The iCa [8] was “not active”, the OGTT ([9]; mice, effect on glucose) was “decreases” and the OGTT response ([9]; mouse, in vivo) was −10%. For the same molecule, the EC50 [10, 17] was 9.1 nM, the EC50 [10, 18] was 15.6 nM and the “glucose lowering in a diabetic mouse model (FIG. 4)” value [11] was “modest and wanes over time”. The “BWt (mDIO)” value ([12]; DIO mice) was “not active” and the “weight loss / body weight change in diet-induced-obese mice” value ([12]; mouse, in vivo) was “did not cause weight loss”.

In the case of “Y(D-Ala)EGTFISDYSIAMDKIHQQDFVNWLLAQKPSSGAPPPS-NH2 [Compound 0601GIP3794]”, the “insulin levels prior to the glucose challenge” value [1] is reported as “significant rise in insulin levels”, the “insulinotropic response to an intravenous glucose challenge (IVGTT assay)” value [1] is reported as “significant enhancement of the insulinotropic response” and the “IVGTT > = < Compared to 0601GIP3794” value ([1]; rat, in vivo) is reported as “=”. The “Standard IVGTT assay IV infusion (insulin AUC 0-30 min)” value ([1]; rat, in vivo, iv) was 249, the food intake (mouse, in vivo, ip) was “did not acutely inhibit food intake” and the “Basal Glucose Lowering at 80 nmol/Kg” value ([4]; 80 nmol/kg, AUC180) was −9%, AUC180. For the same molecule, the “Basal Glucose Lowering at Peptide Conc. of 80 nmol/kg” value ([4]; 80 nmol/kg, AUC240) was −7 to −20%,, the “glucose lowering profile over 240 min (FIGS. 8-10)” value ([4]; 2-hour fasted NIH/Swiss mice, IP) was “gradually increasing activity that peaks at t=120 min, and is more sustained than native GIP or its D-Ala2 version” and the “glucose lowering in normal mice (FIGS. 3A and 3B)” value ([4]; NIH/Swiss mice, IP) was “significantly more efficacious than full length GIP”. The “GL (glucose lowering, compared to 0601GIP3794)” value ([4]; mouse, in vivo) was “=794”, the “basal glucose lowering (% maximal decrease)” value ([4]; mouse, in vivo) was −20% and the dP/dt [5] was “increased dP/dt similarly”. The “effect on heart rate” value [5] was “transient relative to GIP”, the “effect on mean arterial pressure” value [5] was “decreased mean arterial pressure” and the “systolic and diastolic pressures” value [5] was “sustained lowering of systolic and diastolic pressures”. For the same molecule, the body composition ([6]; mouse, in vivo) was “slight decrease in percentage body fat with an increase in body protein without a concomitant reduction in body weight”, the “Duration of action in assay (insulin AUC 0-30 min)” value (“Duration of action in assay” below) ([13]; SC inj T = −30 min) was 198 and the “Duration of action in assay” value ([13]; SC inj T = −60 min) was 159. For the same molecule, the “Duration of action in assay” value ([13]; SC inj T = −120 min) was 204, the “Duration of action in assay” value ([13]; SC inj T = −240 min) was 79 and the “DOA (duration of action, compared to 0601GIP3794)” value ([13]; time not stated) was “=794”. For the same molecule, the “OGTT/GL (%)” value ([9]; 10 nmol/kg) was −17% 10 nmol/kg, the “OGTT/GL (%)” value ([9]; 350 nmol/kg) was −21% 350 nmol/kg, and the “OGTT (compared to 0601GIP3794)” value ([9]; mouse, in vivo) was “=794”. The “OGTT ED50” value ([9]; mouse, in vivo) was “ED50 ~2 nmol/kg,”, the OGTT response ([9]; mouse, in vivo) was −21% and the EC50 [10, 17] was 11.7 nM. For the same molecule, the EC50 [10, 18] was 29.8 nM, the “Basal Glucose Lowering in db/db” value ([11]; 80 nmol/kg, t = 120) was −33%, 80 nmol/kg, and the “glucose lowering in a diabetic mouse model (FIG. 4)” value [11] was “pronounced and long-acting effect in lowering glucose”.

For DY(SO3)MGWMDF [CCK-8], the “potency of binding displacement relative to unsulfated CCK-8 or CCK-4” value [14] is listed as 1000-5000 and the “EC(50) nmol/kg for inhibition of gastric emptying” value ([7]; subcutaneous 5 min before gavage) is listed as 12.8 nmol/kg.

For `CC[C@H](C)[C@H](NC(=O)[C@H](CO)NC(=O)[C@H](Cc1ccc(O)cc1)NC(=O)[C@H](CC(=O)O)NC(=O)[C@H](CO)NC(=O)[C@@H](NC(=O)[C@H](Cc1ccccc1)NC(=O)[C@@H](NC(=O)CNC(=O)[C@H](CCC(=O)O)NC(=O)[C@@H](C)NC(=O)[C@@H](N)Cc1ccc(O)cc1)[C@@H](C)O)[C@@H](C)CC)C(=O)N[C@@H](C)C(=O)N[C@@H](CCSC)C(=O)N[C@@H](CC(=O)O)C(=O)N[C@@H](CCCCN)C(=O)N[C@H](C(=O)N[C@@H](Cc1c[nH]cn1)C(=O)N[C@@H](CCC(N)=O)C(=O)N[C@@H](CCC(N)=O)C(=O)N[C@@H](CC(=O)O)C(=O)N[C@@H](Cc1ccccc1)C(=O)N[C@H](C(=O)N[C@@H](CC(N)=O)C(=O)N[C@@H](Cc1c[nH]c2ccccc12)C(=O)N[C@@H](CC(C)C)C(=O)N[C@@H](CC(C)C)C(=O)N[C@@H](C)C(=O)N[C@@H](CCC(N)=O)C(=O)N[C@@H](CCCCN)C(=O)N[C@@H](CO)C(=O)NCC(=O)N[C@@H](C)C(=O)N1CCC[C@H]1C(=O)N1CCC[C@H]1C(=O)N1CCC[C@H]1C(=O)N[C@@H](CO)C(N)=O)C(C)C)[C@@H](C)CC` [0601GIP4192], the IC50 [15] was 7 nM and the “OGTT/GL (%)” value ([9]; 350 nmol/kg) was −16%.

In the case of `CC[C@H](C)[C@H](NC(=O)[C@@H]1CCCN1C(=O)CNC(=O)[C@H](Cc1ccccc1)NC(=O)[C@H](CC(N)=O)NC(=O)[C@H](CC(N)=O)NC(=O)[C@H](CO)NC(=O)[C@H](CO)NC(=O)[C@H](Cc1c[nH]cn1)NC(=O)[C@@H](NC(=O)[C@H](CC(C)C)NC(=O)[C@H](Cc1ccccc1)NC(=O)[C@H](CC(N)=O)NC(=O)[C@H](C)NC(=O)[C@H](CC(C)C)NC(=O)[C@H](CCCNC(=N)N)NC(=O)[C@H](CCC(N)=O)NC(=O)[C@@H](NC(=O)[C@H](C)NC(=O)[C@@H]1CSSC[C@H](NC(=O)[C@@H](N)CCCCN)C(=O)N[C@@H](CC(N)=O)C(=O)N[C@@H]([C@@H](C)O)C(=O)N[C@@H](C)C(=O)N[C@@H]([C@@H](C)O)C(=O)N1)[C@@H](C)O)C(C)C)C(=O)N[C@@H](CC(C)C)C(=O)N1CCC[C@H]1C(=O)N1CCC[C@H]1C(=O)N[C@H](C(=O)N[C@@H](CC(N)=O)C(=O)N[C@H](C(=O)NCC(=O)N[C@@H](CO)C(=O)N[C@@H](CC(N)=O)C(=O)N[C@H](C(=O)N[C@@H](Cc1ccc(O)cc1)C(N)=O)[C@@H](C)O)C(C)C)[C@@H](C)O` [pramlintide, ^25,28,29Pro-h-amylin], the “half-emptying time of the stomach” value [16] is listed as “approximately doubled the half-emptying time of the stomach”.
